Measurements taken from patent US20240360146A1, “BRUTON'S TYROSINE KINASE AND MUTANT DEGRADER, COMPOSITION AND APPLICATION THEREOF” (HANGZHOU HEALZEN THERAPEUTICS CO., LTD., priority 2021, published 2024).

These compounds were tested against T1, BTK (Homo sapiens, UniProt Q06187) (assay: BTK degradation activity test in Mino cells). Conditions: 16 h incubation, Western blot or Elisa.
T1 construct: endogenous in cells; host or cells: Mino cells
Format: cell-based
In short: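 DC50 derived by curve fitting of BTK degradation rates versus untreated control across compound concentrations. Mino cells were exposed for 16 h; BTK levels in lysates, normalised via BCA protein, measured by Western blot or ELISA.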

T1 sequence (Q06187 whole entry): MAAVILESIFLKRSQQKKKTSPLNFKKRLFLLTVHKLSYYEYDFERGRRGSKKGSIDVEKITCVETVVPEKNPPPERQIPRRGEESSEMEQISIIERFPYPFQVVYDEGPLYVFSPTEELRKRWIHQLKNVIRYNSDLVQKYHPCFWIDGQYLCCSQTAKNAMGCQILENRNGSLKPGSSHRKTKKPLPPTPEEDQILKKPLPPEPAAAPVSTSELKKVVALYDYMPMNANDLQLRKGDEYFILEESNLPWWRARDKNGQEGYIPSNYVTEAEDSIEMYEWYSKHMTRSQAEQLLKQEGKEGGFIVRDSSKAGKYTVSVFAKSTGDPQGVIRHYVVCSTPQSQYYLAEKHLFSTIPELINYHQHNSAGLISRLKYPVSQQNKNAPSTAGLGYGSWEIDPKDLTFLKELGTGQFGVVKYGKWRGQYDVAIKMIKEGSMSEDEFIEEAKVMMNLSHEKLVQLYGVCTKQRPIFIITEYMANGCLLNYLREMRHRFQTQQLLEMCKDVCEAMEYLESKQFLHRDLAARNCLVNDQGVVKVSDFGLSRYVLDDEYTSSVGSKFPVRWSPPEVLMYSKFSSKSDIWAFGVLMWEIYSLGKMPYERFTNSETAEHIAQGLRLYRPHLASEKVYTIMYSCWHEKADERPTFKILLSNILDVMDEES

DC50 | SMILES
< 1 nM | CN1CCN(C2CCCN(c3nnc(C(N)=O)c(Nc4ccc(C5CCN(CC6CCN(c7ccc8c(c7)C(=O)N(C7CCC(=O)NC7=O)C8=O)CC6)CC5)cc4)n3)C2)C1=O (stereo not shown) [Compound 053, 5-((4-(1-((1-(2-(2,6-dioxopiperidin-3-yl)-1,3-dioxoisoindol-5-yl)piperidin-4-yl)methyl)piperidin-4-yl)phenyl)amino)-3-(3-(3-methyl-2-oxoimidazolin-1-yl)piperidin-1-yl)-1,2,4-triazin-6-carboxamide]
< 1 nM | Cc1cc(C#CCN2CCN(c3ccc(Nc4nc(N5CCC[C@@H](N6CCN(C)C6=O)C5)nnc4C(N)=O)cc3F)CC2)ccc1C(=O)NC1CCC(=O)NC1=O (stereo partly drawn) [Compound 226, 5-((4-(4-(3-(4-((2,6-dioxopiperidin-3-yl)carbamoyl)-3-methylphenyl)propan-2-yn-1-yl)piperazin-1-yl)-3-fluorophenyl)amino)-3-((R)-3-(3-methyl-2-oxoimidazolidin-1-yl)piperidin-1-yl)-1,2,4-triazin-6-carboxamide]
< 1 nM | CN1CCN([C@@H]2CCCN(c3nnc(C(N)=O)c(Nc4ccc(N5CCN(CC6CCN(c7cccc8c(C9CCC(=O)NC9=O)nn(C)c78)C6)CC5)c(F)c4)n3)C2)C1=O (stereo partly drawn) [Compound 216, 5-((4-(4-((1-(3-(2,6-dioxopiperidin-3-yl)-1-methyl-1H-indazol-7-yl)pyrrolidin-3-yl)methyl)piperazin-1-yl)-3-fluorophenyl)amino)-3-((R)-3-(3-methyl-2-oxoimidazolidin-1-yl)piperidin-1-yl)-1,2,4-triazin-6-carboxamide]
> 1 nM | CN1CCN(C2CCCN(c3nc(Nc4ccc(C5(C)CCN(CC6CCN(c7ccc8c(c7)C(=O)N(C7CCC(=O)NC7=O)C8=O)C6)CC5)cc4)c(C(N)=O)cc3F)C2)C1=O (stereo not shown) [Compound 037, 2-((4-(1-((1-(2-(2,6-dioxopiperidin-3-yl)-1,3-dioxoisoindolin-5-yl)pyrrolidin-3-yl)methyl)-4-methylpiperidin-4-yl)phenyl)amino)-5-fluoro-6-(3-(3-methyl-2-oxoimidazolin-1-yl)piperidin-1-yl)nicotinamide]
< 1 nM | CN1CCN(C2CCCN(c3nnc(C(N)=O)c(Nc4ccc(C5(C)CCN(CC6CCN(c7ccc8c(c7)C(=O)N(C7CCC(=O)NC7=O)C8=O)C6)CC5)cc4)n3)C2)C1=O (stereo not shown) [Compound 035, 5-((4-(1-((1-(2-(2,6-dioxopiperidin-3-yl)-1,3-dioxoisoindolin-5-yl)pyrrolidin-3-yl)methyl)-4-methylpiperidin-4-yl)phenyl)amino)-3-(3-(3-methyl-2-oxoimidazolin-1-yl)piperidin-1-yl)-1,2,4-triazin-6-carboxamide]
< 1 nM | NC(=O)c1ncc(N2CCCC(N3CCN(C4CCCC4)C3=O)C2)nc1Nc1ccc2c(c1)CCN(CC1CCN(c3ccc4c(c3)C(=O)N(C3CCC(=O)NC3=O)C4=O)CC1)C2 (stereo not shown) [Compound 030, 5-(3-(3-cyclopentyl-2-oxoimidazolin-1-yl)piperidin-1-yl)-3-((2-((1-(2-(2,6-dioxopiperidin-3-yl)-1,3-dioxoisoindol-5-yl)piperidin-4-yl)methyl)-1,2,3,4-tetrahydroisoquinolin-6-yl)amino)pyrazin-2-carboxamide]
< 1 nM | CN1CCN(C2CCCN(c3nnc(C(N)=O)c(Nc4ccc(C5CCN(CC6CCN(c7cc8c(cc7F)C(=O)N(C7CCC(=O)NC7=O)C8=O)CC6)CC5)cc4)n3)C2)C1=O (stereo not shown) [Compound 085, 5-((4-(1-((1-(2-(2,6-dioxopiperidin-3-yl)-6-fluoro-1,3-dioxoisoindol-5-yl)piperidin-4-yl)methyl)piperidin-4-yl)phenyl)amino)-3-(3-(3-methyl-2-oxoimidazolin-1-yl)piperidin-1-yl)-1,2,4-triazin-6-carboxamide]
< 1 nM | CN1CCN([C@@H]2CCCN(c3nnc(C(N)=O)c(Nc4ccc(N5CCN(C#Cc6ccc(C(=O)NC7CCC(=O)NC7=O)c(F)c6)CC5)c(F)c4)n3)C2)C1=O (stereo partly drawn) [Compound 225, 5-((4-(4-((4-((2,6-dioxopiperidin-3-yl)carbamoyl)-3-fluorophenyl)ethynyl)piperazin-1-yl)-3-fluorophenyl)amino)-3-((R)-3-(3-methyl-2-oxoimidazolidin-1-yl)piperidin-1-yl)-1,2,4-triazin-6-carboxamide]
< 1 nM | COc1cc(C(N)=O)c(Nc2ccc(C3(C)CCN(CC4CCN(c5ccc6c(c5)C(=O)N(C5CCC(=O)NC5=O)C6=O)C4)CC3)cc2)nc1N1CCCC(N2CCN(C)C2=O)C1 (stereo not shown) [Compound 038, 2-((4-(1-((1-(2-(2,6-dioxopiperidin-3-yl)-1,3-dioxoisoindolin-5-yl)pyrrolidin-3-yl)methyl)-4-methylpiperidin-4-yl)phenyl)amino)-5-methoxy-6-(3-(3-methyl-2-oxoimidazolin-1-yl)piperidin-1-yl)nicotinamide]
< 1 nM | CN1CCN([C@@H]2CCCN(c3nnc(C(N)=O)c(Nc4ccc(N5CCN(CC6CCN(c7ccc(NC8CCC(=O)NC8=O)nc7)C6)CC5)c(F)c4)n3)C2)C1=O (stereo partly drawn) [Compound 200, 5-((4-(4-((1-(6-((2,6-dioxopiperidin-3-yl)amino)pyridin-3-yl)pyrrolidin-3-yl)methyl)piperazin-1-yl)-3-fluorophenyl)amino)-3-((R)-3-(3-methyl-2-oxoimidazolidin-1-yl)piperidin-1-yl)-1,2,4-triazin-6-carboxamide]
< 1 nM | CN1CCN([C@@H]2CCCN(c3nnc(C(N)=O)c(Nc4ccc(C5CCN(C[C@H]6CCN(c7cc8c(cc7F)C(=O)N(C7CCC(=O)NC7=O)C8=O)C6)CC5)cc4)n3)C2)C1=O (stereo partly drawn) [Compound 156, 5-((4-(1-(((3R)-1-(2-(2,6-dioxopiperidin-3-yl)-6-fluoro-1,3-dioxoisoindolin-5-yl)pyrrolidin-3-yl)methyl)piperidin-4-yl)phenyl)amino)-3-((R)-3-(3-methyl-2-oxoimidazolin-1-yl)piperidin-1-yl)-1,2,4-triazin-6-carboxamide]
< 1 nM | CN1CCN([C@@H]2CCCN(c3nnc(C(N)=O)c(Nc4ccc(N5CCN(CC6CCN(c7ccc(N8CCC(=O)NC8=O)cc7P(C)(C)=O)CC6)CC5)c(F)c4)n3)C2)C1=O [Compound 198, (R)-5-((4-(4-((1-(2-(dimethylphosphoryl)-4-(2,4-dioxotetrahydropyrimidin-1(2H)-yl)phenyl)piperidin-4-yl)methyl)piperazin-1-yl)-3-fluorophenyl)amino)-3-(3-(3-methyl-2-oxoimidazolidin-1-yl)piperidin-1-yl)-1,2,4-triazin-6-carboxamide]
< 1 nM | CN1CCN(C2CC3CC2N(c2nnc(C(N)=O)c(Nc4ccc(C5CCN(C6CN(c7ccc8c(c7)C(=O)N(C7CCC(=O)NC7=O)C8=O)C6)CC5)cc4)n2)C3)C1=O (stereo not shown) [Compound 103, 5-((4-(1-(1-(2-(2,6-dioxopiperidin-3-yl)-1,3-dioxoisoindol-5-yl)azetidin-3-yl)piperidin-4-yl)phenyl)amino)-3-(6-(3-methyl-2-oxoimidazolin-1-yl)-2-azabicyclo[2.2.1]heptan-2-yl)-1,2,4-triazin-6-carboxamide]
< 1 nM | CN1CCN([C@@H]2CCCN(c3nnc(C(N)=O)c(Nc4ccc(C5CCN(C[C@H]6CCN(c7ccc8c(c7)C(=O)N(C7CCC(=O)NC7=O)C8=O)C6)CC5)c(F)c4)n3)C2)C1=O (stereo partly drawn) [Compound 158, 5-((4-(1-(((3R)-1-(2-(2,6-dioxopiperidin-3-yl)-1,3-dioxoisoindolin-5-yl)pyrrolidin-3-yl)methyl)piperidin-4-yl)-3-fluorophenyl)amino)-3-((R)-3-(3-methyl-2-oxoimidazolin-1-yl)piperidin-1-yl)-1,2,4-triazin-6-carboxamide]
< 1 nM | CN1CCN(C2CCCN(c3nnc(C(N)=O)c(Nc4ccc(C5CCN(CC6CCN(c7ccc8c(c7)C(=O)N(C7CCC(=O)NC7=O)C8)CC6)CC5)cc4)n3)C2)C1=O (stereo not shown) [Compound 086, 5-((4-(1-((1-(2-(2,6-dioxopiperidin-3-yl)-3-oxoisoindol-5-yl)piperidin-4-yl)methyl)piperidin-4-yl)phenyl)amino)-3-(3-(3-methyl-2-oxoimidazolin-1-yl)piperidin-1-yl)-1,2,4-triazin-6-carboxamide]
< 1 nM | CN1CCN([C@@H]2CCCN(c3nnc(C(N)=O)c(Nc4ccc(C5CCN(CC6CCN(c7ccc(N8CCC(=O)NC8=O)cc7)CC6)CC5)c(CO)c4)n3)C2)C1=O [Compound 240, (R)-5-((4-(1-((1-(4-(2,4-dioxotetrahydropyrimidin-1(2H)-yl)phenyl)piperidin-4-yl)methyl)piperidin-4-yl)-3-(hydroxymethyl)phenyl)amino)-3-(3-(3-methyl-2-oxoimidazolidin-1-yl)piperidin-1-yl)-1,2,4-triazin-6-carboxamide]
< 1 nM | NC(=O)c1nnc(N2CC3CC(N4CC5CCCN5C4=O)C2C3)nc1Nc1ccc(C2CCN(CC3CCN(c4ccc5c(c4)C(=O)N(C4CCC(=O)NC4=O)C5=O)CC3)CC2)cc1 (stereo not shown) [Compound 074, 5-((4-(1-((1-(2-(2,6-dioxopiperidin-3-yl)-1,3-dioxoisoindol-5-yl)piperidin-4-yl)methyl)piperidin-4-yl)phenyl)amino)-3-(6-(3-oxotetrahydro-1H-pyrrolo[1,2-c]imidazol-2(3H)-yl)-2-azabicyclo[2.2.1]heptan-2-yl)-1,2,4-triazin-6-carboxamide]
< 1 nM | NC(=O)c1nnc(N2CC3CC(N4CCN(C5CCCC5)C4=O)C2C3)nc1Nc1ccc(C2CCN(CC3CCN(c4ccc5c(c4)C(=O)N(C4CCC(=O)NC4=O)C5=O)CC3)CC2)cc1 (stereo not shown) [Compound 072, 3-(6-(3-cyclopentyl-2-oxoimidazolin-1-yl)-2-azabicyclo[2.2.1]heptan-2-yl)-5-((4-(1-((1-(2-(2,6-dioxopiperidin-3-yl)-1,3-dioxoisoindol-5-yl)piperidin-4-yl)methyl)piperidin-4-yl)phenyl)amino)-1,2,4-triazin-6-carboxamide]
< 1 nM | NC(=O)c1ncc(N2CCCC(N3CCN(C4CCCC4)C3=O)C2)nc1Nc1ccc(C2CCN(CC3CCN(c4ccc5c(c4)C(=O)N(C4CCC(=O)NC4=O)C5=O)C3)CC2)cc1 (stereo not shown) [Compound 039, 5-(3-(3-cyclopentyl-2-oxoimidazolin-1-yl)piperidin-1-yl)-3-((4-(1-((1-(2-(2,6-dioxopiperidin-3-yl)-1,3-dioxoisoindolin-5-yl)pyrrolidin-3-yl)methyl)piperidin-4-yl)phenyl)amino)pyrazin-2-carboxamide]
